Counter-ions that a name gives are not always drawn.
Legend:
[1] = in vivo; cited from earlier work
[2] = 10 mg oral dose, five adult males; cited from earlier work
[3] = Hydrocodone simulations (one-compartment model); conditions: estimated from non-compartmental parameters
Method: Studies of hydrocodone formulations of the present invention were conducted to simulate the profiles associated with twice-daily administration hydrocodone for both single dose and steady state. […] Non-compartmental parameters were used to find estimates of the unit input response and a one-compartment model was assumed for all simulations.
For the absorption rate constant k01, several profiles were simulated using different estimates of k01.
Options 1 and 2 assumed a first order release and option 3 a zero-order release.

[4] = in vivo; cited from earlier work; remark: listed apart in the source
[5] = cited from earlier work

Which “doses reported as fatal” value [1] does the source give for `CC(=O)Nc1ccc(O)cc1` [acetaminophen] here?
The value was 15,000-20,0000 milligrams a day.

What does the source list for `COc1ccc2c3c1OC1C(=O)CCC4C(C2)N(C)CC[C@]314` (stereo partly drawn) [Hydrocodone, 4,5a-Epoxy-3-methoxy-1 7-methylmorphinan-6-one tartrate (1:1) hydrate (2:5)]?
Cmax [2]: 23.6 ± 5.2 ng/mL; Thalf [2]: 3.8 ± 0.3 h; Tmax [2]: 1.3 ± 0.3 h; K10 [3]: 0.18; V/f [3]: 334.29 L; half life [4]: 4 to 8 h

With “4-hydroxy-2-methyl-N-(5-methyl-2-thiazolyl)-2-H-1,2-benzothiazine-3-carboxamide 1,1-dioxide [Meloxicam]” as the compound, how does the “time of second meloxicam concentration peak” value ([5]; fasted steady state conditions, post-dose) read?
The value was “twelve to fourteen”.

And the bioavailability ([5]; single 30 mg oral dose compared to 30 mg intravenous bolus injection)?
Its bioavailability is 89%.

Reference: US20080102121A1 (Elan Pharma International Limited, priority 1998, published 2008)
